Results taken from ChEMBL document CHEMBL1201862, “PubChem BioAssay data set” (2004).
Active and inactive are the calls of the source.

Tests used:
BJ [1] = test: cytotoxicity toward BJ-TERT fibroblasts, dose response, cell-based, RAS-independent, luminescence (AID 1933); assay type: functional; conditions: Homo sapiens
[2] = target: T1, Heat shock factor protein 1 (Mus musculus, UniProt P38532); test: inhibition of MG132-induced HSE-luciferase signal, confirmation, cell-based, NIH3T3, luminescence, dose retest (AID 2382); assay type: functional;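 further: NIH3T3 fibroblasts with HSF1-driven luciferase reporter stressed by proteasome inhibitor MG132; luminescence from HSF1-driven luciferase expression after 8 hours of MG132 stress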
T1 sequence (P38532 whole entry): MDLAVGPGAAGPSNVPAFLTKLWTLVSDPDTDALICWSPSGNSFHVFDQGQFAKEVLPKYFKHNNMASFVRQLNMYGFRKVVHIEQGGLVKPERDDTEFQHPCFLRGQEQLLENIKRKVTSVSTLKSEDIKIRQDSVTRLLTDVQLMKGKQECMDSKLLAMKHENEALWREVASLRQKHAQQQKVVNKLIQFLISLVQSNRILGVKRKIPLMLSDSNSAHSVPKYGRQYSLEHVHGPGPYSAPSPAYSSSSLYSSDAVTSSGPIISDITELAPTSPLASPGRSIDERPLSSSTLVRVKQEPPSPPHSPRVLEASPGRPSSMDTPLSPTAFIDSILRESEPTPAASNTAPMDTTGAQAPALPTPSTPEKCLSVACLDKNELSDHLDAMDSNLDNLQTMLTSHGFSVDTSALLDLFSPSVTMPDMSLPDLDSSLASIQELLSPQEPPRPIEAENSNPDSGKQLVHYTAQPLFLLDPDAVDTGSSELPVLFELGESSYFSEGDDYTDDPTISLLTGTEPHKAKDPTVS

BJ [3] = test: cells; assay type: functional, cell-based; conditions: Homo sapiens
BJ [4] = test: cytotoxicity toward BJ-TERT-LT-ST fibroblasts, dose response, cell-based, RAS-independent, luminescence (AID 1935); assay type: functional; conditions: Homo sapiens;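 further: BJ fibroblasts immortalized with TERT plus LT and ST oncogenes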
[5] = cytotoxicity toward DRD oncogenic fibroblasts, dose response, cell-based, non-viral oncogenic, luminescence (AID 1934); assay type: functional; conditions: Homo sapiens
BJ [6] = test: cytotoxicity toward Ras-transformed BJeLR fibroblasts, dose response, cell-based, alamar blue fluorescence, cherrypicked samples (AID 2631); assay type: functional; conditions: Homo sapiens;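 further: confirmatory dose-response assay in RAS-dependent BJ fibroblasts engineered with TERT, LT and ST, with cytotoxicity read by fluorescence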
[7] = target: 26S proteasome non-ATPase regulatory subunit 14 (Homo sapiens, UniProt O00487); test: inhibition of proteasome subunit RPN11 – biochemical, fluorescence polarization, uHTS hits, confirmation (AID 602368); assay type: functional
[8] = target: 72 kDa type IV collagenase (Homo sapiens, UniProt P08253); test: Dose Response validation of uHTS RPN11 inhibitor hits using a MMP-2 Fluorescence assay.; assay type: functional
Prothrombin = Prothrombin (Bos taurus, UniProt P00735); test: thrombin inhibition, dose response, biochemical, fluorescence polarization, uHTS hits (AID 602369); assay type: functional
[9] = target: T2, DNA repair protein RAD52 homolog (Homo sapiens, UniProt P43351); assay type: functional, biochemical
T2 sequence (P43351 whole entry): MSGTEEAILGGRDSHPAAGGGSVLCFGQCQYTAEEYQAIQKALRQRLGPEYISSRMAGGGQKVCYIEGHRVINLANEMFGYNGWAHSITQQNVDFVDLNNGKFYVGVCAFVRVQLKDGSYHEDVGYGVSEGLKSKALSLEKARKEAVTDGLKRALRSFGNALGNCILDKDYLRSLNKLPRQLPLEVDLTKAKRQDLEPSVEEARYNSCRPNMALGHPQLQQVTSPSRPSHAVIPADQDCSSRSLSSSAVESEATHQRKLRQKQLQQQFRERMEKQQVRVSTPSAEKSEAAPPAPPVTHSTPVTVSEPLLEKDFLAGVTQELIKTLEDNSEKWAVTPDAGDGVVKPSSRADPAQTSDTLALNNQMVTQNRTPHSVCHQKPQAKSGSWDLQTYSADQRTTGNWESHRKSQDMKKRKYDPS

[10] = target: T3, Corticotropin-releasing factor receptor 2/Corticotropin-releasing factor-binding protein (Homo sapiens, UniProt P24387+Q13324); test: Dose Response confirmation of uHTS hits for small molecule antagonists of the CRF-binding protein and CRF-R2 receptor complex.; assay type: functional; conditions: read-out: IC50_Mean
T3 sequence (Q13324 whole entry): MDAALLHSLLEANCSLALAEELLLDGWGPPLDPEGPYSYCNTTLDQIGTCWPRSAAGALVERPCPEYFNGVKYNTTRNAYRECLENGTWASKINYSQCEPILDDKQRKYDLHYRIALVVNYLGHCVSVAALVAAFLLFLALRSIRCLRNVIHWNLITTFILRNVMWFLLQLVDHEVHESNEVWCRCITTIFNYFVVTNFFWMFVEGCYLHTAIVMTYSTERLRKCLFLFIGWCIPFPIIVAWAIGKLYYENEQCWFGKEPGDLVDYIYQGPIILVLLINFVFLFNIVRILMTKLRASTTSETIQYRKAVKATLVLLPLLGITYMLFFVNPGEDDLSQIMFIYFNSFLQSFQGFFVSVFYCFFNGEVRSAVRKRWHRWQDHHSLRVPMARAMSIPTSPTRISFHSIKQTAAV
T3 sequence (P24387 whole entry): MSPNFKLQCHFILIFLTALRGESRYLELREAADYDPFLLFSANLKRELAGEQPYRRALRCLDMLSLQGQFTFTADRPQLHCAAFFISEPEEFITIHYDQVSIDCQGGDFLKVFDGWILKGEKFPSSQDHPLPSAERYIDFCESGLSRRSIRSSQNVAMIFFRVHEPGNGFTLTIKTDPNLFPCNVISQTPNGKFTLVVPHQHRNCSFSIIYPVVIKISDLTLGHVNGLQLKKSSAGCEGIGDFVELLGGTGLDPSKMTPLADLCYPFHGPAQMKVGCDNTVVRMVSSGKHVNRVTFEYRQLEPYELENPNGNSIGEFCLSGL

[11] = target: T3, Corticotropin-releasing factor receptor 2/Corticotropin-releasing factor-binding protein; test: activators of CRF receptor 2 with binding protein – uHTS hits, confirmation (AID 602473); assay type: functional; conditions: read-out: EC50_Mean
[12] = target: T4, Low molecular weight phosphotyrosine protein phosphatase (Homo sapiens, UniProt P24666); assay type: functional; conditions: read-out: IC50_Mean;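 further: Dose-response confirmation assay measuring inhibition of LMPTP enzyme activity by fluorescence intensity read-out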
T4 sequence (P24666 whole entry): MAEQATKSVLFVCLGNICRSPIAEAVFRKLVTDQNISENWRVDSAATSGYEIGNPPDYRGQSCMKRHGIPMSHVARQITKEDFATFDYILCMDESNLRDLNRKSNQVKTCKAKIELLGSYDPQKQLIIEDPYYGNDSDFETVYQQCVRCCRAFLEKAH

[13] = target: Peroxisome proliferator-activated receptor gamma/Nuclear receptor coactivator 2 (Homo sapiens, UniProt P37231); assay type: functional;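 further: agonist potency for raising coactivator recruitment to the receptor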
[14] = target: Peroxisome proliferator-activated receptor gamma/Nuclear receptor coactivator 1 (Homo sapiens, UniProt P37231); assay type: functional;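 further: agonist potency as compounds enhance coactivator SRC-1 recruitment to PPARgamma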
[15] = target: Peroxisome proliferator-activated receptor gamma/Nuclear receptor coactivator 3 (Homo sapiens, UniProt P37231); assay type: functional;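 further: agonist potency for raising coactivator recruitment to the receptor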
[16] = microbe, parasite or virus in culture; assay type: functional; conditions: Mycobacterium tuberculosis
[17] = growth suppression of PTEN-null colon cells, dose response, cell-based, HCT116 PTEN knockout (AID 1047); assay type: functional;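 further: HCT116 colon tumor cells with PTEN knocked out; cells exposed to compound for 60 hours before readout; potency for loss of cell viability measured by luminescence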
[18] = growth suppression of beta-catenin-knockout colon cells, dose response, cell-based, HCT116, human colon tumor (AID 1045); assay type: functional;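 further: HCT116 colon tumor cells with beta catenin knocked out; cells exposed to compound for 60 hours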
[19] = target: T5, Replicative DNA helicase DnaB (Mycobacterium tuberculosis, UniProt P9WMR3); test: DnaB intein splicing inhibitors, dose response, biochemical, cell-free fluorescence (AID 449749); assay type: functional
T5 sequence (P9WMR3 whole entry): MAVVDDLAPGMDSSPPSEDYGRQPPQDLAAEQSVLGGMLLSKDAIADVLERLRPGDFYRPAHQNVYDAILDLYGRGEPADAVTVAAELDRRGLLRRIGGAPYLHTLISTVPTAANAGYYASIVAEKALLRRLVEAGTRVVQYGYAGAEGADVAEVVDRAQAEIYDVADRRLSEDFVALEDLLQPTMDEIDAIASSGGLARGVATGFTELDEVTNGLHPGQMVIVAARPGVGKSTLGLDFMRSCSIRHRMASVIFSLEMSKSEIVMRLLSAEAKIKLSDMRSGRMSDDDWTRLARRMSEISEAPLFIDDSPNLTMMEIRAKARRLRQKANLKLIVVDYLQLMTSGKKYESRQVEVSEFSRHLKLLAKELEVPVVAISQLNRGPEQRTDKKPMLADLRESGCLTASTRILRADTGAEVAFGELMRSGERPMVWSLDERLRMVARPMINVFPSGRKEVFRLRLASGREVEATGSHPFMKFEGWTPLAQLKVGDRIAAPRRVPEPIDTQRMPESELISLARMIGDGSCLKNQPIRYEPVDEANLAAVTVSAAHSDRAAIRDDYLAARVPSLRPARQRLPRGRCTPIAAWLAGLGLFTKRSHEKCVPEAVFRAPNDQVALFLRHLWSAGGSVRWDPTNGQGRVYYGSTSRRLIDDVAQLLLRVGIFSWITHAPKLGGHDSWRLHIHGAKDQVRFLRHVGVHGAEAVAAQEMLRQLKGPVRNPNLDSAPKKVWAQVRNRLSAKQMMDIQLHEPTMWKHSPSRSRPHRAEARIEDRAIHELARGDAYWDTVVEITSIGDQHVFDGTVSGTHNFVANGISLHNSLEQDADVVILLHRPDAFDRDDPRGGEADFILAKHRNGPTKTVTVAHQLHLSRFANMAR

Protein RecA = target: T6, Protein RecA (Mycobacterium tuberculosis, UniProt P9WHJ3); test: Fluorescence Cell-Free Homogeneous Dose Retest to Identify Inhibitors of RecA-Intein Splicing Activity. [Related pubchem assays (depositor defined):AID2097, AID2223, AID489010, AID492950]; assay type: functional
T6 sequence (P9WHJ3 whole entry): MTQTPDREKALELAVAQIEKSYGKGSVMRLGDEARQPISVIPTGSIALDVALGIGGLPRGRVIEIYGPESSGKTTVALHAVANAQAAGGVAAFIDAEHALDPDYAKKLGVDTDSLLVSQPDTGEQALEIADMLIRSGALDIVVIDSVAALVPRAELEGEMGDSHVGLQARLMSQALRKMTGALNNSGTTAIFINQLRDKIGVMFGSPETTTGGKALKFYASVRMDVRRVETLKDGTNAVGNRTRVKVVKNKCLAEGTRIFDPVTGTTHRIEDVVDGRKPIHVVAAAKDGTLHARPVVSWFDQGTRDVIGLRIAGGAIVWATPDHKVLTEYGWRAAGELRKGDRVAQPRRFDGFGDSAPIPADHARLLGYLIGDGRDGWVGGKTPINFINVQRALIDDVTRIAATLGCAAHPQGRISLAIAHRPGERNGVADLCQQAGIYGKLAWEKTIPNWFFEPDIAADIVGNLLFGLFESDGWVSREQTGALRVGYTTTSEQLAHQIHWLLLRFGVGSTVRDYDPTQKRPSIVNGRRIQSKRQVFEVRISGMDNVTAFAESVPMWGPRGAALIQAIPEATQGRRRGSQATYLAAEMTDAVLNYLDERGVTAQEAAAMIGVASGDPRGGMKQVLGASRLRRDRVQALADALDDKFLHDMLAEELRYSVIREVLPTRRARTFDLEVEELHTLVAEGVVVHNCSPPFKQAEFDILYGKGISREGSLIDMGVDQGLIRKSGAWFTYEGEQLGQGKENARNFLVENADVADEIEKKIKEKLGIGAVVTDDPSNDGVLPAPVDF

Peroxisome proliferator-activated receptor gamma/Nuclear receptor coactivator 3, sequence (P37231 whole entry): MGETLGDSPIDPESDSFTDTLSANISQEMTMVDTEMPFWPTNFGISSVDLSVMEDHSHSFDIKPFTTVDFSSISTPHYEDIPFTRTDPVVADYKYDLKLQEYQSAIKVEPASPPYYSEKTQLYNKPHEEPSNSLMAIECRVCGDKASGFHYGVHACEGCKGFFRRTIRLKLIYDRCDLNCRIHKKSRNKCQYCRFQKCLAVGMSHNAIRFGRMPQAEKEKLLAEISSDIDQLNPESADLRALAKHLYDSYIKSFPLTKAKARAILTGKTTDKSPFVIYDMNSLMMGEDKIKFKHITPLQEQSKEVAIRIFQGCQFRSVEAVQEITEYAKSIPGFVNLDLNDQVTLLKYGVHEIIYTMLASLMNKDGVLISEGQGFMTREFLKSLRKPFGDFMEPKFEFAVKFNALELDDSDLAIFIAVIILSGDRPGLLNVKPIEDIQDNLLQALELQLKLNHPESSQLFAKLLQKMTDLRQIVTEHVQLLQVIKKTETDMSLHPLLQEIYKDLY
Peroxisome proliferator-activated receptor gamma/Nuclear receptor coactivator 3, sequence (Q9Y6Q9 whole entry, further chain): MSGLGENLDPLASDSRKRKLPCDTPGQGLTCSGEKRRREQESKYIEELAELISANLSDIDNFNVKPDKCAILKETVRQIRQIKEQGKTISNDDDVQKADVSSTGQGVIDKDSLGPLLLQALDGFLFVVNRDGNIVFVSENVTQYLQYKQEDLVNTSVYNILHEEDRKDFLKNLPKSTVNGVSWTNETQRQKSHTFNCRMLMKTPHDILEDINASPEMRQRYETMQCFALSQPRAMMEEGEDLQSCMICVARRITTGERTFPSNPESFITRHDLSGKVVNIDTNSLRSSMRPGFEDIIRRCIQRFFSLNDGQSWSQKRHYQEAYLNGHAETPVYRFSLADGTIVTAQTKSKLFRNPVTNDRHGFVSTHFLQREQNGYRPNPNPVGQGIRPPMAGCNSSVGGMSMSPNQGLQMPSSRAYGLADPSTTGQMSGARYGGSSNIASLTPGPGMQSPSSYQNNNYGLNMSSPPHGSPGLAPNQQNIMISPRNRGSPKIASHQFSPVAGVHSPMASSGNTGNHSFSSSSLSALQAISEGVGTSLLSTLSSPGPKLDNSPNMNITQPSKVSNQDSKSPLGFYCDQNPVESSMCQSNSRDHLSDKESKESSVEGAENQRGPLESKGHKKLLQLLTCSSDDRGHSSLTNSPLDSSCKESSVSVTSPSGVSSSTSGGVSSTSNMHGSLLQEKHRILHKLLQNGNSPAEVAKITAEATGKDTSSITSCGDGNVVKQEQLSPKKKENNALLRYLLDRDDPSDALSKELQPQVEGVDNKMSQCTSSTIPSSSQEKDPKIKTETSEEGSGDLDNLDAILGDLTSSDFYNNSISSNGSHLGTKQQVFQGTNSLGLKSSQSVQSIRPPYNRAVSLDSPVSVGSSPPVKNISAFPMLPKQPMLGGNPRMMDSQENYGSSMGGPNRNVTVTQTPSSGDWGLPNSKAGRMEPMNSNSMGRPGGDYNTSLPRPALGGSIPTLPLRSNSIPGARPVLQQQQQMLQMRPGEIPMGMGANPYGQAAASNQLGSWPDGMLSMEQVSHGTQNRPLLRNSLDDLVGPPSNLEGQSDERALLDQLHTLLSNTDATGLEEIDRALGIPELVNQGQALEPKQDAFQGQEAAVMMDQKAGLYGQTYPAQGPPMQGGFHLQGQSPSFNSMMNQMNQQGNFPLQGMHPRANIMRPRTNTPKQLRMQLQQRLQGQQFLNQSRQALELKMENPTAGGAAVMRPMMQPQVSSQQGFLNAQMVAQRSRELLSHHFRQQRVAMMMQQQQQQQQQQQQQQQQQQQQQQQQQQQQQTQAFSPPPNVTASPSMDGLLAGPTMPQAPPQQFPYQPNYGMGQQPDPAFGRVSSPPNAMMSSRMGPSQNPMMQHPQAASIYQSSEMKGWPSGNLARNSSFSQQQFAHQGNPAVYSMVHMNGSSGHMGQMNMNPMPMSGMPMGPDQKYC
Peroxisome proliferator-activated receptor gamma/Nuclear receptor coactivator 2, sequence (P37231 whole entry): as the sequence (P37231 whole entry) above
Peroxisome proliferator-activated receptor gamma/Nuclear receptor coactivator 2, sequence (Q15596 whole entry, further chain): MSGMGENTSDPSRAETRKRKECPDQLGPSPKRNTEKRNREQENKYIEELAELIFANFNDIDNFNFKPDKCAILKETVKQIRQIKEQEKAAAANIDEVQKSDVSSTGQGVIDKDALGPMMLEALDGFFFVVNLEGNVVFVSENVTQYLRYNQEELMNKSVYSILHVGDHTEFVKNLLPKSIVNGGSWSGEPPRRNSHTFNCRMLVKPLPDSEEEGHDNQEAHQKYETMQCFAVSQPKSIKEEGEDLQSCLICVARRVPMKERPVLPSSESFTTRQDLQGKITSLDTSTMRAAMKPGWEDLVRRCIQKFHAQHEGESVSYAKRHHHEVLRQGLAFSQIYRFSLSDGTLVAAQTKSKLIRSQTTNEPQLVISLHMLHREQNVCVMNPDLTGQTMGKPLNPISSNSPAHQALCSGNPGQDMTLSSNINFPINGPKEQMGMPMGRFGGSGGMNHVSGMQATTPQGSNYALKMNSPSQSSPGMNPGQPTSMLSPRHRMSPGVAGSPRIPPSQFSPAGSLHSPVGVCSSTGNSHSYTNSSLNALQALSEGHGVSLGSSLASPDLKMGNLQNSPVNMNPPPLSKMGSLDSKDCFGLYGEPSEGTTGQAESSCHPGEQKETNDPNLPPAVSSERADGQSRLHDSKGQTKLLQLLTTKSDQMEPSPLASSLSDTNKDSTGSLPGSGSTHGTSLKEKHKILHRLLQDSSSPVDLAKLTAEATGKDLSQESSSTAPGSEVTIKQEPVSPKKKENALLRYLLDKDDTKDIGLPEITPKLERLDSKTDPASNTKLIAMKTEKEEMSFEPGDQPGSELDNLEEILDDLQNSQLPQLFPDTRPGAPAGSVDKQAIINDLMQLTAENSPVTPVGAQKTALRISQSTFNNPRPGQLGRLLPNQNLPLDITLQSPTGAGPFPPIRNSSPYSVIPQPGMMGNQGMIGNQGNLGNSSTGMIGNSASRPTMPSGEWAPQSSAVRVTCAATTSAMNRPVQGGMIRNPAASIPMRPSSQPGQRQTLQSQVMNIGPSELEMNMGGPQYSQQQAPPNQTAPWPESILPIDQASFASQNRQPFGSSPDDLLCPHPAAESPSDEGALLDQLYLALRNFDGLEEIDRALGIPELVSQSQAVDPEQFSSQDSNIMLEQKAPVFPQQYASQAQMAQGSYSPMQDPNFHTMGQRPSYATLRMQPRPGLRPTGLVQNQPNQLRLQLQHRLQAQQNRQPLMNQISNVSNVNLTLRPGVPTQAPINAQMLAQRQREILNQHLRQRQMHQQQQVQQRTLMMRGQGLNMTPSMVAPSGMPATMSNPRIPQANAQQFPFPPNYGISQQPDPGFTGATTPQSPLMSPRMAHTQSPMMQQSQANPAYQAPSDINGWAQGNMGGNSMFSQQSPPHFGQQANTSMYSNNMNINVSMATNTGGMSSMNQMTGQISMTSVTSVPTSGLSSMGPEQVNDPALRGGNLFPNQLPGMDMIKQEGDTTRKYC
72 kDa type IV collagenase, sequence (P08253 whole entry): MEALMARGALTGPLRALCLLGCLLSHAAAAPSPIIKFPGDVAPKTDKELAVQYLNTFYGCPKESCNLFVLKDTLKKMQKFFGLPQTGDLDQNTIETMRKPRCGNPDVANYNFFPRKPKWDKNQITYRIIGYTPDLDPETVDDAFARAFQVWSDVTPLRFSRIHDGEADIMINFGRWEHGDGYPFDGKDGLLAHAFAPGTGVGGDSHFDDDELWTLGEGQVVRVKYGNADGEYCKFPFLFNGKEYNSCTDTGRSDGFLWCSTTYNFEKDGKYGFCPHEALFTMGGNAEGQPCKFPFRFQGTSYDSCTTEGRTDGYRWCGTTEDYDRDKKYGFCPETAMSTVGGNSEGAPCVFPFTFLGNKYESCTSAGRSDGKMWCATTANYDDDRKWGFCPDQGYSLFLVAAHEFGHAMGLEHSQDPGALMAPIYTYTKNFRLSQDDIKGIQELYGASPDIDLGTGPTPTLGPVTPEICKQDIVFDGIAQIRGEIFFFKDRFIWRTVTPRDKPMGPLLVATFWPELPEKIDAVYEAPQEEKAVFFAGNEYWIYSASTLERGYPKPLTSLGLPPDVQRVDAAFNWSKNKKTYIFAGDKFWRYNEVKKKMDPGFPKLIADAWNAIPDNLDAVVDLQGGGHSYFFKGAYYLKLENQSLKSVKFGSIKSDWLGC
26S proteasome non-ATPase regulatory subunit 14, sequence (O00487 whole entry): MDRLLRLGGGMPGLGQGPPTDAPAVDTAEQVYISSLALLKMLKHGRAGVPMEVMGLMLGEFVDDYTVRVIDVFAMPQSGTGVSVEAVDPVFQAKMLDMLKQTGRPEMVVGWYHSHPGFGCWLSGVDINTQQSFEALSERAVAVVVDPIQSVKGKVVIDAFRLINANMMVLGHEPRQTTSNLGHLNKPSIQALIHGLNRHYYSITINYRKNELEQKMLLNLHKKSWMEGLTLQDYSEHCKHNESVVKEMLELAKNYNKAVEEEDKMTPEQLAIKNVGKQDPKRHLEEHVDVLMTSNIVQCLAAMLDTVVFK

SMILES: CCN1CCc2c(sc(NC(=O)c3cc4ccccc4cc3OC)c2C(N)=O)C1
- EC50 (BJ [1]): 4.46 µM (inconclusive)
- EC50 [2]: 40.7 µM (active)
- EC50 (BJ [3]): 5.67 µM (inconclusive)
- EC50 (BJ [4]): 4.91 µM (inconclusive)
- EC50 [5]: 6.38 µM (active)
- EC50 (BJ [6]): 937 nM (active)
- IC50 [7]: 26.3 µM (active)
- IC50 [8]: > 100 µM (inactive)
- IC50 (Prothrombin): 32.5 µM (active)
- AC50 [9]: 3.75 µM (active)

SMILES: COc1ccc(Cn2c(-c3ccco3)nc3c(c(=O)c4ccccc4n3C)c2=O)cc1
- IC50 [10]: > 47.1 µM (inactive)
- EC50 [11]: > 53 µM (inactive)
- IC50 [12]: 39 µM (inactive)

SMILES: O=c1c(Cl)nc2cc(Cl)ccc2n1CCNc1ncc(C(F)(F)F)cc1Cl
- EC50 [13]: 20.1 µM (not active)
- EC50 [14]: 19.8 µM (not active)
- EC50 [15]: 36.3 µM (not active)
- EC50 (BJ [1]): 2.67 µM (inconclusive)
- EC50 (BJ [3]): 6.1 µM (inconclusive)
- CC50 [16]: 11.5 µM (active)
- EC50 [17]: 4.75 µM (active)
- EC50 [18]: 4.66 µM (active)
- EC50 (BJ [4]): 1.98 µM (active)
- EC50 [5]: 2.81 µM (inconclusive)
- AC50 [19]: > 120 µM (inactive)
- EC50 (BJ [6]): 574 nM (inconclusive)
- EC50 (Protein RecA): 951 nM (active)
